Measured values as given in US7713548B2, “Amorphous solid dispersions” (sanofi-aventis U.S. LLC, priority 2005, dated 2010).

Experiments:
[1] = Physical stability of amorphous pure drug substance; assay type: physicochemical; details: amorphous forms of the pure drug substance; crystallized over time
[2] = target: peripheral-type benzodiazepine receptors (Homo sapiens, UniProt P30536); details: described in U.S. Pat. No. 6,262,045 and 6,395,729; cited from earlier work
[3] = test system: animal models of rheumatoid arthritis; assay: Animal models of rheumatoid arthritis; assay type: in vivo; details: by modulating the immune response

Sequence of peripheral-type benzodiazepine receptors (P30536 whole entry): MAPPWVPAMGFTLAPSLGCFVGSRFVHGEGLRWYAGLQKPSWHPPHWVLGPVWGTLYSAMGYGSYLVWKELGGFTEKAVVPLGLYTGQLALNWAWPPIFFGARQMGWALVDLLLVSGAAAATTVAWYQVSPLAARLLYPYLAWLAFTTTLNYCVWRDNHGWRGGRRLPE

Structure (SMILES): CN(C)C(=O)Cc1nn(-c2ccccc2)c(=O)c2c1c1ccc(Cl)cc1n2C [7-chloro-N,N,5-trimethyl-4-oxo-3-phenyl-3,5-dihydro-4H-pyridazino[4,5-b]indole-1-acetamide]
- physical stability [1]: limited physical stability
- affinity for the peripheral-type benzodiazepine receptors [2]: high affinity
- pharmacological activity in animal models of rheumatoid arthritis [3]: has shown pharmacological activity
